Measured values as given in patent US9416181B2, “Compositions for cell culture and methods of using the same” (AbbVie Inc., priority 2013, dated 2016).

Test system: Cell Line 1 (CHO) expressing Antibody 1
Assay: Acidic species variants (WCX-10) of Antibody 1, Cell Line 1 shake flask fed-batch culture
Type: cell-based, Chinese Hamster
Conditions: shaker; for reduction of total acidic species content, absolute value: vs unsupplemented control
Description: A recombinant Chinese Hamster Ovary (CHO) cell line (Cell Line 1) expressing a humanized monoclonal antibody (Antibody 1) was evaluated in 2 different cultures vessels (shaker flasks and 3 L laboratory-scale bioreactors). The cell line was of CHO DUX-B11 origin based on a DHFR (dihydrofolate reductase) expression system and cultured in a chemically defined basal media, and fed periodically with a chemically-defined feed media (CDFM). The media utilized throughout all of the experiments were chemically-defined, and both animal-component free, and protein-free. Each of the respective media were supplemented as needed with selected bioflavonoids to evaluate for their potential impact on the resulting acidic species profile. In preparation of the cultures, the cell lines were serially expanded through separate seed train inoculums to generate enough cells for inoculation. Process conditions utilized during the cultures were slightly different depending on the culture scale, but similar within each scale to the respective non-bioflavonoid supplemented control conditions. All bioflavonoids utilized were purchased from Sigma-Aldrich (St. Louis, Mo.).
Samples were analyzed using an HPLC system equipped with a ProPac WCX-10 analytical column (Thermo Scientific, Sunnyvale, Calif.). Approximately 100 μg of sample was loaded in 6% Buffer B (10 mM sodium phosphate, 500 mM NaCl, pH 5.5) and 94% Buffer A (10 mM sodium phosphate, pH 7.5). The column was run at a flow rate of 1.0 mL/min. The protein was eluted from the column by increasing the buffer B composition from 6% to 16% over 20 minutes. The protein peaks were measured using UV absorbance at 280 nm as the peaks eluted from the column. The column was regenerated using 100% buffer B followed be a re-equilibration period using initial condition before the injection of the next sample. Peaks eluting before the main peak were termed “acidic peaks” and peaks eluting after the main peak were called “basic peaks” (FIG. 2).
In this Example, EGCG was added into the feed (cell culture medium) at the concentration range of 5 mg/L (low), 20 mg/L (mid) and 50 mg/L (high) in a shaker experiment to determine the impact of EGCG on product quality of a humanized monoclonal antibody (Antibody 1). Detailed cell culture conditions are as described in Table 1.
However, it was not clear whether or not additional bioflavonoids would also have the same effects. To evaluate the impact of alternative bioflavonoids, fed-batch shake flask cultures were initiated with CDFM supplemented with 3 different concentrations of genistein, rutin, and naringin, in addition to EGCG. Cell growth, viability, as well as titers and acidic species variants were measured.
Charge Heterogeneity via Weak Cation Exchange Chromatography-Samples were analyzed using an HPLC system equipped with a ProPac WCX-10 analytical column (Thermo Scientific, Sunnyvale, Calif.). Approximately 100 μg of sample was loaded in 6% Buffer B (10 mM sodium phosphate, 500 mM NaCl, pH 5.5) and 94% Buffer A (10 mM sodium phosphate, pH 7.5). The column was run at a flow rate of 1.0 mL/min. The protein was eluted from the column by increasing the buffer B composition from 6% to 16% over 20 minutes. The protein peaks were measured using UV absorbance at 280 nm as the peaks eluted from the column. The column was regenerated using 100% buffer B followed be a re-equilibration period using initial condition before the injection of the next sample. Peaks eluting before the main peak were termed ‘acidic peaks’ and peaks eluting after the main peak were called ‘basic peaks’ (FIG. 2).
To evaluate the impact of other bioflavonoids, fed-batch shake flask cultures were initiated with CDFM supplemented with multiple concentrations of rutin. Cell growth, viability, as well as titers and acidic species variants were measured and shown in FIGS. 14 and 15, respectively.

O=C(O[C@@H]1Cc2c(O)cc(O)cc2O[C@@H]1c1cc(O)c(O)c(O)c1)c1cc(O)c(O)c(O)c1 [EGCG, epigallocatechin gallate]
reduction of total acidic species content, relative value (5 mg/L in feed): 5%
reduction of total acidic species content, absolute value (5 mg/L in feed): 1%
reduction of total acidic species content, relative value (20 mg/L in feed): 10%
reduction of total acidic species content, absolute value (20 mg/L in feed): 2%
reduction of total acidic species content, relative value (50 mg/L in feed): 35%
reduction of total acidic species content, absolute value (50 mg/L in feed): 7%
